Test results as given in publication PMC9817970 (Cancers, 2022).

Tests used:
Assay in all cases: Kinase panel profiling
Type in all cases: biochemical
Details in all cases: 10 μM ATP
[1] = molecular target: T1, Aurora A (Homo sapiens, UniProt O14965)
T1 construct: purchased Reaction Biology Corp
Method: (§1) Kinase panel profiling was conducted by Reaction Biology Corp. (San Diego, CA, USA). A single dose (1.0 μM) of 6r was tested against 371 recombinant human kinases in the presence of 10 μM ATP.

[2] = molecular target: T2, BMX/ETK (Homo sapiens, UniProt P51813)
T2 construct: purchased Reaction Biology Corp
Method: as §1

[3] = molecular target: T3, CAMK1d (Homo sapiens, UniProt Q8IU85)
T3 construct: purchased Reaction Biology Corp
Method: as §1

[4] = molecular target: T4, CAMK2g (Homo sapiens, UniProt Q13555)
T4 construct: purchased Reaction Biology Corp
Method: as §1

[5] = molecular target: T5, CDK1/cyclin E (Homo sapiens, UniProt P06493)
T5 construct: purchased Reaction Biology Corp
Method: as §1

[6] = molecular target: T6, CDK19/cyclin C (Homo sapiens, UniProt Q9BWU1)
T6 construct: purchased Reaction Biology Corp
Method: as §1

[7] = molecular target: T7, CDK5/p35 (Homo sapiens, UniProt Q00535)
T7 construct: purchased Reaction Biology Corp
Method: as §1

[8] = molecular target: T8, CK1g1 (Homo sapiens, UniProt Q9HCP0)
T8 construct: purchased Reaction Biology Corp
Method: as §1

[9] = molecular target: T9, CLK4 (Homo sapiens, UniProt Q9HAZ1)
T9 construct: purchased Reaction Biology Corp
Method: as §1

[10] = molecular target: T10, DAPK1 (Homo sapiens, UniProt P53355)
T10 construct: purchased Reaction Biology Corp
Method: as §1

[11] = molecular target: T11, DLK/MAP3K12 (Homo sapiens, UniProt Q12852)
T11 construct: purchased Reaction Biology Corp
Method: as §1

[12] = molecular target: T12, EPHB2 (Homo sapiens, UniProt P29323)
T12 construct: purchased Reaction Biology Corp
Method: as §1

[13] = molecular target: T13, ERK1 (Homo sapiens, UniProt P27361)
T13 construct: purchased Reaction Biology Corp
Method: as §1

[14] = molecular target: T14, FLT1/VEGFR1 (Homo sapiens, UniProt P17948)
T14 construct: purchased Reaction Biology Corp
Method: as §1

[15] = molecular target: T15, GCK/MAP4K2 (Homo sapiens, UniProt Q12851)
T15 construct: purchased Reaction Biology Corp
Method: as §1

[16] = molecular target: T16, GRK2 (Homo sapiens, UniProt P25098)
T16 construct: purchased Reaction Biology Corp
Method: as §1

[17] = molecular target: T17, HCK (Homo sapiens, UniProt P08631)
T17 construct: purchased Reaction Biology Corp
Method: as §1

[18] = molecular target: T18, HGK/MAP4K4 (Homo sapiens, UniProt O95819)
T18 construct: purchased Reaction Biology Corp
Method: as §1

[19] = molecular target: T19, IR (Homo sapiens, UniProt P06213)
T19 construct: purchased Reaction Biology Corp
Method: as §1

[20] = molecular target: T20, LIMK1 (Homo sapiens, UniProt P53667)
T20 construct: purchased Reaction Biology Corp
Method: as §1

[21] = molecular target: T21, MAPKAPK5/PRAK (Homo sapiens, UniProt Q8IW41)
T21 construct: purchased Reaction Biology Corp
Method: as §1

[22] = molecular target: T22, MEK1 (Homo sapiens, UniProt Q02750)
T22 construct: purchased Reaction Biology Corp
Method: as §1

[23] = molecular target: T23, MEK3 (Homo sapiens, UniProt P46734)
T23 construct: purchased Reaction Biology Corp
Method: as §1

[24] = molecular target: T24, MNK1 (Homo sapiens, UniProt Q9BUB5)
T24 construct: purchased Reaction Biology Corp
Method: as §1

[25] = molecular target: T25, MNK2 (Homo sapiens, UniProt Q9HBH9)
T25 construct: purchased Reaction Biology Corp
Method: as §1

[26] = molecular target: T26, MSK1/RPS6KA5 (Homo sapiens, UniProt O75582)
T26 construct: purchased Reaction Biology Corp
Method: as §1

[27] = molecular target: T27, MSK2/RPS6KA4 (Homo sapiens, UniProt O75676)
T27 construct: purchased Reaction Biology Corp
Method: as §1

[28] = molecular target: T28, P38a/MAPK14 (Homo sapiens, UniProt Q16539)
T28 construct: purchased Reaction Biology Corp
Method: as §1

[29] = molecular target: T29, P38g (Homo sapiens, UniProt P53778)
T29 construct: purchased Reaction Biology Corp
Method: as §1

[30] = molecular target: T30, PAK5 (Homo sapiens, UniProt Q9P286)
T30 construct: purchased Reaction Biology Corp
Method: as §1

[31] = molecular target: T31, PDGFRb (Homo sapiens, UniProt P09619)
T31 construct: purchased Reaction Biology Corp
Method: as §1

[32] = molecular target: T32, PIM3 (Homo sapiens, UniProt Q86V86)
T32 construct: purchased Reaction Biology Corp
Method: as §1

[33] = molecular target: T33, PKA (Homo sapiens, UniProt P17612)
T33 construct: purchased Reaction Biology Corp
Method: as §1

[34] = molecular target: T34, PKN1/PRK1 (Homo sapiens, UniProt Q16512)
T34 construct: purchased Reaction Biology Corp
Method: as §1

[35] = molecular target: T35, PKN3/PRK3 (Homo sapiens, UniProt Q6P5Z2)
T35 construct: purchased Reaction Biology Corp
Method: as §1

[36] = molecular target: T36, RAF1 (Homo sapiens, UniProt P04049)
T36 construct: purchased Reaction Biology Corp
Method: as §1

[37] = molecular target: T37, SGK3/SGKL (Homo sapiens, UniProt Q96BR1)
T37 construct: purchased Reaction Biology Corp
Method: as §1

[38] = molecular target: T38, TAK1 (Homo sapiens, UniProt O43318)
T38 construct: purchased Reaction Biology Corp
Method: as §1

[39] = molecular target: T39, TBK1 (Homo sapiens, UniProt Q9UHD2)
T39 construct: purchased Reaction Biology Corp
Method: as §1

[40] = molecular target: T40, TESK1 (Homo sapiens, UniProt Q15569)
T40 construct: purchased Reaction Biology Corp
Method: as §1

[41] = molecular target: T41, TLK1 (Homo sapiens, UniProt Q9UKI8)
T41 construct: purchased Reaction Biology Corp
Method: as §1

[42] = molecular target: T42, YES/YES1 (Homo sapiens, UniProt P07947)
T42 construct: purchased Reaction Biology Corp
Method: as §1

T18 sequence (O95819 whole entry): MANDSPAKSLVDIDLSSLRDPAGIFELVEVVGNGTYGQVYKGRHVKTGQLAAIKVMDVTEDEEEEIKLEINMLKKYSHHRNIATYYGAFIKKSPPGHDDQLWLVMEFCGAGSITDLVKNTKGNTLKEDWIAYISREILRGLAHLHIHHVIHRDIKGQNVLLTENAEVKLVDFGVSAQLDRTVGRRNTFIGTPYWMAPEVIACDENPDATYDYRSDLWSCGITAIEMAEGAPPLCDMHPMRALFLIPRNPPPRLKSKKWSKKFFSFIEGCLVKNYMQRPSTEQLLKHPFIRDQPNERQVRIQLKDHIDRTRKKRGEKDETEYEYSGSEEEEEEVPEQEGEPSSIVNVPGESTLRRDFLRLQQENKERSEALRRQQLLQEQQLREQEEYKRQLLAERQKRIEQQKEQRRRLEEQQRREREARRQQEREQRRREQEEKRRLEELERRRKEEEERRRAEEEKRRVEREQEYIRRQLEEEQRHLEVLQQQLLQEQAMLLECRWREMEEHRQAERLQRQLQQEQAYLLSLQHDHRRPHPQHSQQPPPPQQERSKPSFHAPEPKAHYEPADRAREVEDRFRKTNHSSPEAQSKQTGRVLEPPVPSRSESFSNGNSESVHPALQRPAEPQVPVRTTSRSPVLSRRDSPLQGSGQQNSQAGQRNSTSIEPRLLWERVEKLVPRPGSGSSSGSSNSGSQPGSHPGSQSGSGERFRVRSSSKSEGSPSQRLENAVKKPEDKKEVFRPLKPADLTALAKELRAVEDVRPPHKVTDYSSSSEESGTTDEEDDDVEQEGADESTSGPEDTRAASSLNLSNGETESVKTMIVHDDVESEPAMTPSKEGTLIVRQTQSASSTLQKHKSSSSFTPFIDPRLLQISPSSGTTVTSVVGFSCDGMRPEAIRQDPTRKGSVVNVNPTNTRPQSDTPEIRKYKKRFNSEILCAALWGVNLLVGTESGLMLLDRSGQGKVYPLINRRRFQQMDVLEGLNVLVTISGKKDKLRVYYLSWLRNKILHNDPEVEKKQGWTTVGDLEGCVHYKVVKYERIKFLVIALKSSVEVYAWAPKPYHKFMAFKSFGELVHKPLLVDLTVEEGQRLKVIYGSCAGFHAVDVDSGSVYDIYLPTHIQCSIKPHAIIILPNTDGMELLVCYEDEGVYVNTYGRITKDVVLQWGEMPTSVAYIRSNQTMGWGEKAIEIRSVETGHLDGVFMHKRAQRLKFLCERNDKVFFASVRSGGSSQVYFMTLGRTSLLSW
T20 sequence (P53667 whole entry): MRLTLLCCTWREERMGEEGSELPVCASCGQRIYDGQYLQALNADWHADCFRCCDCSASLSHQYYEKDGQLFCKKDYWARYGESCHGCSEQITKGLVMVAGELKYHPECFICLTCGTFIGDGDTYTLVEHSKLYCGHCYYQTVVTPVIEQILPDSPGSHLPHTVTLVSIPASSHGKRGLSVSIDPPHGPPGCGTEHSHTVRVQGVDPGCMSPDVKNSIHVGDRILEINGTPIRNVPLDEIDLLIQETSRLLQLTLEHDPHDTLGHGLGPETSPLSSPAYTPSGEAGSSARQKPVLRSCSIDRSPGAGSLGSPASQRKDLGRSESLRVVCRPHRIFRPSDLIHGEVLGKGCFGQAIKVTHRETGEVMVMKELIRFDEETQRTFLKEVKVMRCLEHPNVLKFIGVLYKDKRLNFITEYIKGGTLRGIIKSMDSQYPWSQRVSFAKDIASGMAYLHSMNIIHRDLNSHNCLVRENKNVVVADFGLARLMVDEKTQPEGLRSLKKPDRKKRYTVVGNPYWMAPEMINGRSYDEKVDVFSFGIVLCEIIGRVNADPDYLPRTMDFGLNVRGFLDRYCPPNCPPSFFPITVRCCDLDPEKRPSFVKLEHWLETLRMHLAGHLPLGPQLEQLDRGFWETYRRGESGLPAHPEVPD
T10 sequence (P53355 whole entry): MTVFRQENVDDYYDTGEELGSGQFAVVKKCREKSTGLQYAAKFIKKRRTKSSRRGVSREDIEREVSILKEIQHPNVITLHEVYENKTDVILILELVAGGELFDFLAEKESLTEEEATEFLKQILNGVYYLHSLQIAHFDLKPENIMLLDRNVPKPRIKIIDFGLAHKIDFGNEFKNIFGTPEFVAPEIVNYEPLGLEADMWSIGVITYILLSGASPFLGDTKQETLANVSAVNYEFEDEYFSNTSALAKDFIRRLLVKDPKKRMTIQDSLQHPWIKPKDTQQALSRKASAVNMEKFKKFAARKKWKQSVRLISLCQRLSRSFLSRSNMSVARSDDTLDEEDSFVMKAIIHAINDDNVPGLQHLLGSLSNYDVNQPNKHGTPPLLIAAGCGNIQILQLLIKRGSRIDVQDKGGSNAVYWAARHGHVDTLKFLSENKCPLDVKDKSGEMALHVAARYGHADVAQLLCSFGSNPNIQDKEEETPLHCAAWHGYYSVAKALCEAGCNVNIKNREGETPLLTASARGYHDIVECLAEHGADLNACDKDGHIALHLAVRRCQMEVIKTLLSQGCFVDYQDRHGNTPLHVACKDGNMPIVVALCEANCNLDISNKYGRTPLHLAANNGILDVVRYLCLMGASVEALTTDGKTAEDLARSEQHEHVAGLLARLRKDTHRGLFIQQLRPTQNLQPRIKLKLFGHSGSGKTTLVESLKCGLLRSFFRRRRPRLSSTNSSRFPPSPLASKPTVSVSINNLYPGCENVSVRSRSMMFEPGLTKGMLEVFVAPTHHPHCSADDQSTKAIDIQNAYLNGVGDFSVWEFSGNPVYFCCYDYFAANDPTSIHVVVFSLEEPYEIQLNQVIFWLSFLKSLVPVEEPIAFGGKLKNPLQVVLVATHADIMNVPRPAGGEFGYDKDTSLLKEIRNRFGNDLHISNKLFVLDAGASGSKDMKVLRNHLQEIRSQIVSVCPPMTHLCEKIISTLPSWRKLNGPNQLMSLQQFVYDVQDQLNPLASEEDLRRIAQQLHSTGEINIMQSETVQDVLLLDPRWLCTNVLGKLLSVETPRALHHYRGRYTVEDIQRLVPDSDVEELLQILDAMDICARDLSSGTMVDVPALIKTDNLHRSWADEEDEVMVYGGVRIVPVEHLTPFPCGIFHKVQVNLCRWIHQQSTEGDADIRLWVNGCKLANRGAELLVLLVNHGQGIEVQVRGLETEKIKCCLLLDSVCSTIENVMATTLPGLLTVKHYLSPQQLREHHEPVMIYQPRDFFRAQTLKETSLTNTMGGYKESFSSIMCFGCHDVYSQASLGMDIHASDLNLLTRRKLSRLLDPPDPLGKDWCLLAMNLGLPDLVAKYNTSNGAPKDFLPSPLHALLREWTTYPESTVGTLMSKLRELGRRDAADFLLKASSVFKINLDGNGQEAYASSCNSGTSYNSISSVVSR
T21 sequence (Q8IW41 whole entry): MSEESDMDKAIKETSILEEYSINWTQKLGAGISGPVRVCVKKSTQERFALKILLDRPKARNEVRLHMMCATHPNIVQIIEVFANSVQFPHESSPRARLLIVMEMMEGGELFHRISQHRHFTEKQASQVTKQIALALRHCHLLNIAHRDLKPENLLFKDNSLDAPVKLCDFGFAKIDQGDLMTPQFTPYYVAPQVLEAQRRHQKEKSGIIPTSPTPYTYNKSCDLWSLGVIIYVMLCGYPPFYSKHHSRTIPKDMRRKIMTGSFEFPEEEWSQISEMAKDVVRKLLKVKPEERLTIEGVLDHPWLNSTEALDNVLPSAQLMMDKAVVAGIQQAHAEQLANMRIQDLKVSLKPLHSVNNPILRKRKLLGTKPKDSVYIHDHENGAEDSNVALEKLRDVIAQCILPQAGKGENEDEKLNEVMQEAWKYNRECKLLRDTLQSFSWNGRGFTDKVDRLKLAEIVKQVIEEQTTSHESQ
T31 sequence (P09619 33-1106): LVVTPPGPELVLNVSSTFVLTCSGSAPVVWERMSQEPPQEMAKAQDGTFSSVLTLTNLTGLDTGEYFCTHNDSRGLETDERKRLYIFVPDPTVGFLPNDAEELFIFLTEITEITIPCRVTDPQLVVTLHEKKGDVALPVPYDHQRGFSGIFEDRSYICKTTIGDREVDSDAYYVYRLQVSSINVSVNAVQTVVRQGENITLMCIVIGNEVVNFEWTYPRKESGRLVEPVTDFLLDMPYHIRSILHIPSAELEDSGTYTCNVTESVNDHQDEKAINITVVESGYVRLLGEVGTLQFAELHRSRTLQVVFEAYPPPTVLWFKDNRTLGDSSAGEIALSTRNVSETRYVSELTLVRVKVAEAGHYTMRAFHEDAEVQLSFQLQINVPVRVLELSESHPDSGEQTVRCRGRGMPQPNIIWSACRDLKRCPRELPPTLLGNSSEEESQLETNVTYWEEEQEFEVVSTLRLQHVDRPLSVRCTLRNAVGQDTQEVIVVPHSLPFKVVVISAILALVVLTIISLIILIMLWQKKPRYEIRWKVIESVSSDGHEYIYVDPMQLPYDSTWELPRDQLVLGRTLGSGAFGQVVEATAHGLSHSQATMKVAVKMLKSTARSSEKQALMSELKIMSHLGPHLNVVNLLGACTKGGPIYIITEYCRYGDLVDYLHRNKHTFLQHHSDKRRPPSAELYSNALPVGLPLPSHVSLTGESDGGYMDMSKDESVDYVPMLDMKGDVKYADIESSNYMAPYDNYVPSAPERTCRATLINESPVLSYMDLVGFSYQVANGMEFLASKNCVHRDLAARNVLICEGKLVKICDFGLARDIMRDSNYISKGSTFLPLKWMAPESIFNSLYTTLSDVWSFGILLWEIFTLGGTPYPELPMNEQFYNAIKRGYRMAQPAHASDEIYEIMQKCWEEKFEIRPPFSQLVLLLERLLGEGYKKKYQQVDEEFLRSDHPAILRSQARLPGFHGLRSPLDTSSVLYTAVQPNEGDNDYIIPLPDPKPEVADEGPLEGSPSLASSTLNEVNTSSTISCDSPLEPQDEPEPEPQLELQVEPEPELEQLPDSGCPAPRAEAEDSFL

With `Cc1ccc(NC(=O)c2ccc(CN3CCN(C)CC3)c(C(F)(F)F)c2)cc1-c1cnc2sc(N)nc2c1` [6r] as the molecule, how does the inhibition at 1 µM [1] read?
Its inhibition at 1 µM is 0%.

What about the inhibition at 1 µM [2] of the same molecule?
The inhibition at 1 µM was 31.5%.

What about the inhibition at 1 µM [3] of the same molecule?
Its inhibition at 1 µM is 14.3%.

And the inhibition at 1 µM [4]?
The inhibition at 1 µM was 0%.

And the inhibition at 1 µM [5]?
The inhibition at 1 µM was 0%.

What about the inhibition at 1 µM [6] of the same molecule?
Its inhibition at 1 µM is 12.8%.

What about the inhibition at 1 µM [7] of the same molecule?
The inhibition at 1 µM was 0.7%.

What about the inhibition at 1 µM [8] of the same molecule?
Its inhibition at 1 µM is 50.5%.

What about the inhibition at 1 µM [9] of the same molecule?
Its inhibition at 1 µM is 7.7%.

What about the inhibition at 1 µM [10] of the same molecule?
Its inhibition at 1 µM is 10.1%.

What about the inhibition at 1 µM [11] of the same molecule?
The inhibition at 1 µM was 0%.

And the inhibition at 1 µM [12]?
Its inhibition at 1 µM is 38.9%.

And the inhibition at 1 µM [13]?
The inhibition at 1 µM was 11.7%.

And the inhibition at 1 µM [14]?
Its inhibition at 1 µM is 63.7%.

What about the inhibition at 1 µM [15] of the same molecule?
The inhibition at 1 µM was 21.8%.

And the inhibition at 1 µM [16]?
The inhibition at 1 µM was 0%.

And the inhibition at 1 µM [17]?
The inhibition at 1 µM was 83.1%.

What about the inhibition at 1 µM [18] of the same molecule?
Its inhibition at 1 µM is 0%.

What about the inhibition at 1 µM [19] of the same molecule?
The inhibition at 1 µM was 1.9%.

And the inhibition at 1 µM [20]?
The inhibition at 1 µM was 87.2%.

And the inhibition at 1 µM [21]?
Its inhibition at 1 µM is 0%.

What about the inhibition at 1 µM [22] of the same molecule?
Its inhibition at 1 µM is 14.4%.

And the inhibition at 1 µM [23]?
The inhibition at 1 µM was 5.2%.

And the inhibition at 1 µM [24]?
The inhibition at 1 µM was 0%.

What about the inhibition at 1 µM [25] of the same molecule?
Its inhibition at 1 µM is 0%.

What about the inhibition at 1 µM [26] of the same molecule?
The inhibition at 1 µM was 0%.

And the inhibition at 1 µM [27]?
The inhibition at 1 µM was 17.1%.

What about the inhibition at 1 µM [28] of the same molecule?
The inhibition at 1 µM was 96.5%.

What about the inhibition at 1 µM [29] of the same molecule?
The inhibition at 1 µM was 0%.

And the inhibition at 1 µM [30]?
The inhibition at 1 µM was 5%.

What about the inhibition at 1 µM [31] of the same molecule?
The inhibition at 1 µM was 94.2%.

And the inhibition at 1 µM [32]?
The inhibition at 1 µM was 3.4%.

What about the inhibition at 1 µM [33] of the same molecule?
Its inhibition at 1 µM is 5.3%.

What about the inhibition at 1 µM [34] of the same molecule?
The inhibition at 1 µM was 15.1%.

And the inhibition at 1 µM [35]?
The inhibition at 1 µM was 8.6%.

And the inhibition at 1 µM [36]?
Its inhibition at 1 µM is 99.9%.

What about the inhibition at 1 µM [37] of the same molecule?
The inhibition at 1 µM was 0.8%.

And the inhibition at 1 µM [38]?
Its inhibition at 1 µM is 12.8%.

And the inhibition at 1 µM [39]?
The inhibition at 1 µM was 5%.

What about the inhibition at 1 µM [40] of the same molecule?
Its inhibition at 1 µM is 5.3%.

And the inhibition at 1 µM [41]?
Its inhibition at 1 µM is 0%.

And the inhibition at 1 µM [42]?
Its inhibition at 1 µM is 77%.
